This is an account of results in patent US9422299B2, “Substituted [1,2,4]triazolo[4,3-a]pyrazines as selective NK-3 receptor antagonists” (EUROSCREEN SA, priority 2013, dated 2016).

One series deals with plasma estradiol. The series can be described thus: Estradiol circulating level in female rats. It counts as in vivo, rat. The note with it: adult female rats, 10 mg/kg b.i.d. oral, 10 days, FIG. 3. The procedure:
Effect of Compounds of the Invention on Estradiol Circulating Level in Female Rats
The aim of this study was to evaluate the effect of compounds of the invention on plasma estradiol levels following oral administration at 10 mg/kg (b.i.d.) for a period of 10 days in female rats.
(§1) Briefly the experimental methods used for this study were as follows:
Two groups of adult, female rats (Sprague-Dawley, ˜320 g) were treated in-phase with their individual estrous cycles. Thus, treatment was started in the proestrus phase (coincident with peak estradiol levels, as shown on Day 1 in FIG. 3) and rats were dosed twice daily (˜9h30 and 17h30) by oral administration either with a compound of the invention at 10 mg/kg or with the vehicle for the control group. Compounds of the invention were prepared in a dose formulation of pyrogen-free water with 0.5% methylcellulose. Estradiol levels were determined for all groups by ELISA performed on plasma samples derived from blood collections taken at 30 minutes before the daily, 9h30 test article administration on all days presented in FIG. 3.

The test system of the next series is circulating LH levels. The series can be described thus: Castrated male rat model: circulating luteinizing hormone (LH). It counts as in vivo. The settings on record: castrated male SD rats, single oral dose less than or equal to 30 mg/kg, p<0.05. The procedure:
In Vivo Assay to Assess Compound Activity in Rat (Oral Dosing)
Castrated male rat model to assess the effect of compound of invention on circulating levels of luteinizing hormone (LH)
The effect of compounds of the invention to inhibit luteinizing hormone (LH) secretion is determined by the following biological studies.
In humans and rodents, castration is well-precedented to permit heightened, persistent GnRH signaling and consequent elevation of circulating LH. Thus, a castrated rat model is used to provide a broad index for measurement of LH inhibition as a marker of test compound inhibition of the GnRH signaling pathway.
Castrated adult male Sprague-Dawley (SD) rats (150-175 g,) were purchased from Janvier (St Berthevin, France). All animals were housed 2 per cage in a temperature-controlled room (22±2° C.) and 50±5% relative humidity with a 12 hour/12 hour light/dark cycles (lights off at 6h00 pm). The animals were allowed 3 weeks of postoperative recovery prior to study. Animals were handled on a daily basis. Standard diet and tap water were provided ad libitum. Animal cage litters were changed once a week. On the study day, animals were acclimated to the procedure room for a period of one hour prior to the initiation of the experiment.
Compounds of the invention were formulated in 0.5% methyl cellulose.
After basal sampling (TO) a single dose of compounds of the invention or vehicle was administrated orally to rats. Blood samples were then collected at several time points post dosing (45, 90, 150, 300 and 420 minutes). Blood samples were obtained via tail vein bleed, drawn into EDTA-containing tubes and centrifuged immediately. Plasma samples were collected and stored in a −80° C. freezer until assayed. Serum LH levels were determined using radioimmunoassay kit from RIAZEN—Rat LH, Zentech (Liege, Belgium). Baseline was defined as the initial basal blood sample.

For another series, the system named is body temperature. As to the kind of experiment: Thermoregulation in OVX ewes. It counts as in vivo, ewe. The note with it: ovariectomized ewes, 1 mg/kg intravenous bolus, fed at 12h00. The source says: In Vivo Assay in OVX Ewes-Activity in Thermoregulation Experimental Methods: Evaluation of Thermoregulation in OVX Ewe […] After 4 months recovery, animals were acclimatised to housing in single pens for a period of 7 days with ad libitum access to water and […] lucerne hay. One day prior to experimentation, the animals received a jugular vein cannula ([…], Tuta Laboratories, Lane Cove, Australia). The cannula were kept patent with heparinised saline. On the day of the experiment, compound no 5 of the present invention was formulated in physiological saline with 9% 2-hydroxypropyl-β-cyclodextrin at a concentration of 2 mg/mL. Compound no 5 (1 mg/kg, N=5) or vehicle (N=5) was administered at 11h00 by intravenous bolus injection at a dose volume of 0.5 mL/kg through the jugular cannula and the injected material was flushed into the animal with 5 mL of heparinised saline. Animals were fed at 12h00. Rectal temperatures were monitored with a probe at hourly intervals throughout the experiment, starting at 7h40 and concluding at 15h40.

The test system of a further series is plasma testosterone. The series can be described thus: Plasma testosterone in gonad intact male rats. The settings on record: gonad intact male SD rats, 3 mg/kg oral, vs vehicle, FIG. 1. In kind it is in vivo, rat. The procedure:
Effect of compounds of the invention on plasma testosterone in gonad intact male rats
The study was designed to evaluate the effect of compounds of the invention on testosterone circulating levels following oral administration at 3 mg/kg on SD gonad intact male rats.
as §1
Two groups of non-fasted rats (male, Sprague-Dawley, 200 to 225 g; n=4 rats/group) with jugular vein cannulation, were dosed via a single oral administration of compounds of the invention at 3 mg/kg. The control group was dosed with the vehicle. Compounds of the invention were prepared in a dose formulation of pyrogen-free water with 0.5% methylcellulose. Blood samples were collected via the catheter implanted in the jugular vein at pre-determined intervals using EDTA-3K as anti-coagulant. Samples were chilled and rapidly processed by centrifugation to obtain corresponding plasma samples. Testosterone hormone levels were determined by RIA performed on plasma samples collected for all the groups at 5 minutes before administration (basal time), and at 45, 90, 150, 300, 480 minutes and 24 hours after dosing.

The next series addresses human NK-2 receptor (Homo sapiens (Human), UniProt P21452). The series can be described thus: Selectivity assay: [125I]-Neurokinin A binding, human NK-2. The note with it: 0.1 nM [125I]-Neurokinin A, CHO membranes; read-out: hNK-2 (Ki). The protocol:
The affinity of compounds of the invention for the NK-2 receptor was evaluated in CHO recombinant cells which express the human NK-2 receptor. Membrane suspensions were prepared from these cells. […] Binding assays were performed in a 25 mM HEPES/1 mM CaCl2/5 mM MgCl2/0.5% BSA/10 μg/ml saponin, at pH 7.4. […] The radioactivity retained on the filters was measured by using the TopCount-NXT reader (Packard).

A further series deals with human NK-1 receptor (Homo sapiens (Human), UniProt P25103). The series can be described thus: Selectivity assay: [3H] substance P binding, human NK-1. The note with it: 2 nM [3H] substance P, CHO membranes; read-out: hNK-1 (Ki). The procedure:
Selectivity of the compounds of the invention was determined over the other human NK receptors, namely NK-1 and NK-2 receptors.
The affinity of compounds of the invention for the NK-1 receptor was evaluated in CHO recombinant cells which express the human NK-1 receptor. Membrane suspensions were prepared from these cells. The following radioligand: [^3H] substance P (PerkinElmer Cat#NET111520) was used in this assay. Binding assays were performed in a 50 mM Tris/5 mM MnCl2/150 mM NaCl/0.1% BSA at pH 7.4. Binding assays consisted of 25 μl of membrane suspension (approximately 5 μg of protein/well in a 96 well plate), 50 μl of compound or reference ligand (Substance P) at increasing concentrations (diluted in assay buffer) and 2 nM [^3H] substance P. The plate was incubated 60 min at 25° C. in a water bath and then filtered over GF/C filters (Perkin Elmer, 6005174, presoaked in 0.5% PEI for 2 h at room temperature) with a Filtration unit (Perkin Elmer). The radioactivity retained on the filters was measured by using the TopCount-NXT reader (Packard).

Another series has as its target hERG channel (Homo sapiens (Human), UniProt Q12809). The series can be described thus: hERG inhibition assay (manual patch-clamp, HEK 293 cells). It counts as cell-based. The note with it: 5 minutes of exposure, read-out: CardioSafety (hERG IC50). The procedure:
The human ether-a-go-go related gene (hERG) encodes the inward rectifying voltage gated potassium channel in the heart (IKr) which is involved in cardiac repolarisation. […] IKr current inhibition accounts for the vast majority of known cases of drug-induced QT-prolongation.
Whole-cell currents (acquisition by manual patch-clamp) elicited during a voltage pulse were recorded in baseline conditions and following application of tested compounds (5 minutes of exposure). The concentrations of tested compounds (0.3 μM; 3 μM; 10 μM; 30 μM) reflect a range believed to exceed the concentrations at expected efficacy doses in preclinical models.
The current density recorded were normalized against the baseline conditions and corrected for solvent effect and time-dependent current run-down using experimental design in test compound free conditions.
A general note: hERG is a cardiac potassium channel; its block is linked to QT prolongation.

A further series relates to plasma protein. The series can be described thus: Determination of plasma protein binding (equilibrium dialysis). The settings on record: 4 hours at 37° C. In kind it is in vitro ADME. An excerpt:
Determination of Plasma Protein Binding
The pharmacokinetic and pharmacodynamic properties of chemicals/drugs are largely a function of the reversible binding of chemicals to plasma or serum proteins. […] Consequently, the extent of the plasma protein binding (PPB) of a compound influences its action as well as its distribution and elimination.
The determination of plasma protein binding (PPB) of a compound is enabled by equilibrium dialysis, an accepted and standard method for reliable estimation of the non-bound drug fraction in plasma. RED (Rapid Equilibrium Dialysis) device insert is made of two side-by-side chambers separated by an O-ring-sealed vertical cylinder of dialysis membrane (MWCO˜8,000). […] After 4 hours incubation at 37° C. under shaking, an aliquot is removed from each chamber and analyzed by a LC-MS/MS procedure enables the determination of both free and bound drug.
The “free fraction” may be calculated as 100%-% rPPB (i.e. the complementary percentage of that disclosed in Table 4, corresponding to the drug concentration that is unbound and therefore available to engage biological target and elicit pharmacological activity).
In general terms: In equilibrium dialysis only unbound substance equilibrates across the membrane.

Series [1] addresses T1, human NK-3 receptor (Homo sapiens (Human), UniProt P29371). The series can be described thus: 3H-SB222200 binding competition assay with human NK-3 receptor. The note with it: read-out: hNK-3 (Ki). The protocol: The affinity of compounds of the invention for the human NK-3 receptor was determined by measuring the ability of compounds of the invention to competitively and reversibly displace a well-characterized NK-3 radioligand in a concentration-dependent manner.
^3H-SB222200 Binding Competition Assay with Human NK-3 Receptor
Membranes were prepared from Chinese hamster ovary recombinant cells stably expressing the human NK-3 receptor. The membranes were incubated with 5 nM ^3H-SB222200 (ARC) in a HEPES 25 mM/NaCl 0.1M/CaCl2 1 mM/MgCl2 5 mM/BSA 0.5%/Saponin 10 μg/ml buffer at pH 7.4 and various concentrations of compounds of the invention. The amount of ^3H-SB222200 bound to the receptor was determined after filtration by the quantification of membrane associated radioactivity using the TopCount-NXT reader (Packard).

In series [2] the target is T1, human NK-3 receptor. As to the kind of experiment: Aequorin functional assay with human NK-3 receptor (antagonist testing). It counts as cell-based. The settings on record: read-out: Functional assay: Aequorin assay with human NK-3 receptor hNK-3 - AEQ (antagonist IC50). The procedure:
Aequorin Assay with Human NK-3 Receptor
Changes in intracellular calcium levels are a recognized indicator of G protein-coupled receptor activity. The efficacy of compounds of the invention to inhibit NKA-mediated NK-3 receptor activation was assessed by an in vitro Aequorin functional assay. Chinese Hamster Ovary recombinant cells expressing the human NK-3 receptor and a construct that encodes the photoprotein apoaequorin were used for this assay. In the presence of the cofactor coelenterazine, apoaequorin emits a measurable luminescence that is proportional to the amount of intracellular (cytoplasmic) free calcium.
The antagonist activity of compounds of the invention is measured following pre-incubation (3 minutes) of the compound (at various concentrations) with the cells, followed by addition of the reference agonist (NKA) at a final concentration equivalent to the EC80 (3 nM) and recording of emitted light (FDSS 6000 Hamamatsu) over the subsequent 90-second period. The intensity of the emitted light is integrated using the reader software. Compound antagonist activity is measured based on the concentration-dependent inhibition of the luminescence response to the addition of Neurokinin A.

T1 sequence (P29371 whole entry): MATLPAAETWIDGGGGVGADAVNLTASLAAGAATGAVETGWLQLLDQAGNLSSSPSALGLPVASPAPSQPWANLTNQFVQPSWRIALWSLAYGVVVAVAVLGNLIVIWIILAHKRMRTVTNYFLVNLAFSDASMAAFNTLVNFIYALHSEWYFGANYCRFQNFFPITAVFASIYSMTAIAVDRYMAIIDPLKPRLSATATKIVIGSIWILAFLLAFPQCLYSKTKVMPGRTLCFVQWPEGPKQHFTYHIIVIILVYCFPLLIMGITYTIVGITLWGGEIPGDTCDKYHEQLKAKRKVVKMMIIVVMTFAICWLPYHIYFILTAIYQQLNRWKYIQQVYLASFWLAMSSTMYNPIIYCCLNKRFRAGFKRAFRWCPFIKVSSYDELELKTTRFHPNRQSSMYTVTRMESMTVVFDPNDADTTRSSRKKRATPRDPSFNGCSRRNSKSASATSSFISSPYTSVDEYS
human NK-1 receptor, sequence (P25103 whole entry): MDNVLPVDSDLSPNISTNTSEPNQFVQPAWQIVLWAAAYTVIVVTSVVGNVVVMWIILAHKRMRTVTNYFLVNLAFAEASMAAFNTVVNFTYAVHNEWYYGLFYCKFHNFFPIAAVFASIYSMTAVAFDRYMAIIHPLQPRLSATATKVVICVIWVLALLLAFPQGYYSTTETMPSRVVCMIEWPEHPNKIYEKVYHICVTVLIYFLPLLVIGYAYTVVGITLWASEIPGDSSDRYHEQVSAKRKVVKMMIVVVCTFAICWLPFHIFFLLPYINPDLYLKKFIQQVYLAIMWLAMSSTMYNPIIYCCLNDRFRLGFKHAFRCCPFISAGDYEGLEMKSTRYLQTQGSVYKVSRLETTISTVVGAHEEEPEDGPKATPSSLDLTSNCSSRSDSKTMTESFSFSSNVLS
hERG channel, sequence (Q12809 whole entry): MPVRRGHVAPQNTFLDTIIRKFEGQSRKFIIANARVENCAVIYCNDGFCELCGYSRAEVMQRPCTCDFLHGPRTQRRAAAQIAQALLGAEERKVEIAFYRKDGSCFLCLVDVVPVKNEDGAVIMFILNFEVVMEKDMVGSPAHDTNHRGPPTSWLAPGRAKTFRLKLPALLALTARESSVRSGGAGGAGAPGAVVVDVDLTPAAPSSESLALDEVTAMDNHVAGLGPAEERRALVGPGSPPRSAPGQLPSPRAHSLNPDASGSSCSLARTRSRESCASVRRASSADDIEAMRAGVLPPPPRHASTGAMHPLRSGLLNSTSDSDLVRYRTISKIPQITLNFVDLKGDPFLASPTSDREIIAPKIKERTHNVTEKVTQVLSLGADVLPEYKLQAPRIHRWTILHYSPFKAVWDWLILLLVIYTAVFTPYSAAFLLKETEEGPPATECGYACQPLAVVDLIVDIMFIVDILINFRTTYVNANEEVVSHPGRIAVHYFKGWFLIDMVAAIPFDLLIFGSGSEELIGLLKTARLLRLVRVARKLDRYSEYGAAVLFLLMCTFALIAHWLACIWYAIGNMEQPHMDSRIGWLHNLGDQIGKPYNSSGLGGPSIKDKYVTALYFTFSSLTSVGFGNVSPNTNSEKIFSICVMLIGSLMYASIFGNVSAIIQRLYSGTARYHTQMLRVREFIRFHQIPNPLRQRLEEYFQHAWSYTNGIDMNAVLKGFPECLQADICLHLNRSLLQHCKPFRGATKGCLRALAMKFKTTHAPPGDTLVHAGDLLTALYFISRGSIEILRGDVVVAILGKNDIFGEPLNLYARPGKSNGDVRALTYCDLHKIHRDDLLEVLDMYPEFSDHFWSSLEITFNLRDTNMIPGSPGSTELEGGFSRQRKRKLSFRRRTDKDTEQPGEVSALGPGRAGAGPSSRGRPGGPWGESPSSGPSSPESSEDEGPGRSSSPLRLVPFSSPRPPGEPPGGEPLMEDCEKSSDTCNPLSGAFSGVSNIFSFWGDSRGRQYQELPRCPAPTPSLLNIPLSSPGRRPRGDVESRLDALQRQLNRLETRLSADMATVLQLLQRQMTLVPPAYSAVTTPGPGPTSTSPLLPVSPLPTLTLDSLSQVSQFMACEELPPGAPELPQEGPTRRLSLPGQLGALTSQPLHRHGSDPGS
human NK-2 receptor, sequence (P21452 whole entry): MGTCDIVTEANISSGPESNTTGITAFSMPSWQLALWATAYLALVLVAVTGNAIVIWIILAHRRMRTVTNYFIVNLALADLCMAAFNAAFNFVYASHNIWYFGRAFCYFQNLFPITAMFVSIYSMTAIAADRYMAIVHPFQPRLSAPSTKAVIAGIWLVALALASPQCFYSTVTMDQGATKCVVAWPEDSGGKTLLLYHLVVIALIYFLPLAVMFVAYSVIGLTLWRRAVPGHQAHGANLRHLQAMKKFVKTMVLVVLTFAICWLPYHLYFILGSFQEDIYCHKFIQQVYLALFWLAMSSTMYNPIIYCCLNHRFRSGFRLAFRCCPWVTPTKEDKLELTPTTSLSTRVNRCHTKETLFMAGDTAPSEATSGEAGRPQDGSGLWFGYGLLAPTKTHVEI

On to `Cc1nsc(-c2nnc3n2CCN(C(=O)c2ccc(F)cc2)[C@@H]3C)n1` [Compound 5, (R)-(4-fluorophenyl)(8-methyl-3-(3-methyl-1,2,4-thiadiazol-5-yl)-5,6-dihydro-[1,2,4]triazolo[4,3-a]pyrazin-7(8H)-yl)methanone], for which the estradiol levels entry in the series on plasma estradiol is recorded as “significantly decreased estradiol levels”. In addition, in the series with circulating LH levels, the “circulating LH levels” value is given as “significantly suppressed circulating LH levels”. The “pyrogenic response to feeding” value in the series with body temperature was “not observed”. Also, in the series on plasma testosterone, the plasma testosterone level entry is reported as “significantly suppressed plasma testosterone level”.
For `COc1cccc(C(=O)N2CCn3c(-c4nc(C)ns4)nnc3[C@H]2C)c1` [Compound 27, (R)-(3-methoxyphenyl)(8-methyl-3-(3-methyl-1,2,4-thiadiazol-5-yl)-5,6-dihydro-[1,2,4]triazolo[4,3-a]pyrazin-7(8H)-yl)methanone], the results for the Ki on human NK-2 receptor, on human NK-1 receptor and at human NK-3 receptor [1] were above 30000 nM, above 30000 nM and 100 nM, respectively. The IC50 (commonly the point on the concentration scale where inhibition reaches its midpoint) at hERG channel was at least 70000 nM; at human NK-3 receptor [2], 220 nM. Moreover, in the series on plasma protein, the “Exposure (% rPPB), bound drug fraction to the plasma protein” value came out at 24%.
